From patent US12048316B2, “Sweetener and flavor compositions, methods of making and methods of use thereof” (EPC Natural Products Co., Ltd., priority 2018, dated 2024)

Assays:
[1] = Assay to test DPPH radical-scavenging activity; type: biochemical; conditions: combinations of amino acids and Reb-A, 100° C.; less pronounced than glucose or xylose
Protocol: 1 mg 1,1-Diphenyl-2-picrylhydrazyl radical (DPPH)/ml ethanol, dilution to assay concentration were prepared in ethanol (40 μg/mL); Calibration samples were prepared with Ascorbic acid in a concentration of 0-10 μg/mL, as a negative control sample, water was used.
Samples in aqueous solution were used as such or diluted with water.
A 0.1 ml sample (or calibration standard) was mixed with 3.9 ml solution of DPPH (100 μMolar) and reacted while protected from light at room temperature for 30 min. Absorbance was determined at 517 nm against ethanol.
10 mM of amino acid and/or 10 mM sugar were dissolved in 10 ml 0.1 mM KH2PO4-buffer, pH=7.8
The samples were kept at 100° C. in sealed glass vials (Pyrex 15 ml with screw caps) for 0 (before reaction), 2.5 or 5.0 hours. Thereafter the samples were transferred to an ice water bath and cooled down to room temperature. These samples were diluted 1:10 and used for the test assay for anti-oxidant potential.

[2] = relative to sucrose (sugar, cane sugar); depends on the tested concentration; cited from earlier work
[3] = HPLC/MS quantitative evaluation: degradation of reaction partners and formation of MRI at various pH-conditions; type: physicochemical; conditions: pH = 7.0
Protocol: All samples were analyzed by HPLC/ISIS using following conditions.
Quantitative evaluation was performed using external standardization.

Row | SMILES | times sweeter than sucrose / sugar [2] | other results
1 | C=C1C[C@@]23CC[C@H]4[C@@](C)(CCC[C@@]4(C)C(=O)O[C@@H]4O[C@H](CO)[C@@H](O)[C@H](O)[C@H]4O)[C@@H]2CC[C@]1(O[C@@H]1O[C@H](CO)[C@@H](O)[C@H](O[C@@H]2O[C@H](CO)[C@@H](O)[C@H](O)[C@H]2O)[C@H]1O[C@@H]1O[C@H](CO)[C@@H](O)[C@H](O)[C@H]1O)C3 [Reb-A, Rebaudioside A] |  | anti-oxidant properties (iron-III reduction, radical scavenging) [1]: substantial anti-oxidant properties
2 | OC[C@H]1O[C@H](O[C@]2(CCl)O[C@H](CCl)[C@@H](O)[C@@H]2O)[C@H](O)[C@@H](O)[C@H]1Cl [sucralose] | about 600 times | 
3 | O=C[C@H](O)[C@@H](O)[C@H](O)CO [Xyl, xylose] |  | % degradation ([3]; reaction Phe + Xyl): 6.3%
4 | O=S(=O)([O-])NC1CCCCC1.[Na+] [sodium cyclamate] | about 30 times | 
5 | C=C1C[C@@]23CC[C@H]4[C@@](C)(CCC[C@@]4(C)C(=O)O[C@@H]4O[C@H](CO)[C@@H](O)[C@H](O)[C@H]4O)[C@@H]2CC[C@]1(O[C@@H]1O[C@H](CO)[C@@H](O)[C@H](O)[C@H]1O)C3 [Rubusoside] | 200 times | 
6 | O=C[C@H](O)[C@@H](O)[C@H](O)[C@H](O)CO [Glu, Glucose] |  | % degradation ([3]; reaction Phe + Gluc): 4.6%
